Test results reported in patent publication US20100112012A1, “MODULATION OF IMMUNE RESPONSES” (CLEVELAND CLINIC FOUNDATION, priority 2005, published 2010).
“Also recorded” adds a separate entry of the source.

How the values were obtained:
p53 = assay: Screening for p53-activating compounds, p53-responsive reporter in RCC45ConALacZ cells; type: cell-based, human
Experimental: (§1) Transient transfections. 2×10^5 cells were plated into 6-well plates and, after overnight incubation, transfected with Lipofectamin Plus reagent (Gibco BRL) with 0.5 μg of reporter plasmids (p21-ConALuc or pNF-κBLuc) in combination with different concentrations of plasmids expressing p53, Arf, Ss-IκB, or siHDM2. Corresponding empty vectors were added in all transfections up to 2 μg of total DNA. Normalization of transfection efficiency was done by adding 0.2 μg of pCMV-LacZ plasmid. Luciferase activity and β-galactosidase activity were measured in lysates prepared 48 hours after transfection with Cell Lysis Buffer (Promega) by the luciferase assay system (Promega) or β-galactosidase enzyme system (Promega). Luminometric and colorimetric reactions were read on the Wallack 1420 plate reader (Perkin Elmer). Stable transduction of reporters. 2×10^4 cells with integrated reporter were plated in 96-well plates. After overnight incubation, chemicals or media from lentivirus-producing cells were added. At different times, cell lysates were prepared using Reporter Lysis Buffer (Promega). Luciferase or β-galactosidase activity and protein concentration were measured in aliquots of cell lysates using standard kits (Promega, Luciferase and β-galactosidase assay systems, Biorad Protein Assay Kit).
The DiverSet library of 34,000 chemical compounds and focused libraries of structural analogues of selected hits were provided by Chembridge, Calif. Cell lines with p53- or NF-κB-responsive luciferase or β-galactosidase reporters were described previously (5, 7). For screening chemicals, 2×10^4 RCC45ConALacZ cells (RCC45-based p53 reporter cells) were plated per well of 96-well plates in 200 μL of phenol-red-free RPMI medium with standard additions. After overnight incubation, the compounds were added to final concentrations of 5-15 μM (0.2 μL of compound in DMSO per well). […] After 24 h, lysis buffer with ortho-nitrophenyl-β-D-galactopyranoside (ONPG) was added and β-galactosidase activity was estimated colorimetrically by a multiwell plate reader.

ovalbumin-specific IgG = assay: Ovalbumin immunization, ovalbumin-specific IgG titers by ELISA; type: in vivo, BALB/c mice; conditions: ovalbumin 100 ug i.p. days 0 and 7; quinacrine 80 mg/kg days 1, 2, 8 and 9; serum day 14
[1] = system: antigen-presenting dendritic cells; assay: Flow cytometry of CD11c+/FITC+ dendritic cells in skin draining lymph nodes; type: in vivo, BALB/c mice; conditions: day +2
Experimental: LNC were obtained from hapten-sensitized mice on day +2 post-sensitization. To prevent non-specific antibody binding cells were incubated with rat serum (Rockland, Gilbertsville, Pa.) diluted 1:1000 in staining buffer (Dulbecco's PBS with 2% FCS/0.02% NaN3) for 20 min on ice. Then cells were washed and stained with PE-labeled anti-CD11c mAb to detect DC. Stained cells were washed five times, resuspended in staining buffer and analyzed by two-color flow cytometry using a FACScan (Becton Dickinson, San Jose, Calif.).
To detect Langerhans cells in the lymph nodes LNC were obtained 48 h after sensitization with 1% FITC and were stained with PE-labeled anti-CD11c mAb and then analyzed by two-color flow cytometry.

NF-κB = assay: NF-κB-dependent reporter in H1299-NF-kBLuc cells; type: cell-based, human; conditions: TNF 10 ng/ml
Experimental: as §1

[2] = system: hapten-specific CD8 T cells producing IFN-γ; assay: ELISPOT assay of hapten-specific CD8 T cells producing IFN-γ; type: in vivo, BALB/c mice; conditions: day +5
Experimental: ELISPOT assays to enumerate hapten-specific T cells producing IFN-γ were performed as previously described. Briefly, ELISPOT plates (Millipore, Bedford, Mass.) were coated with 100 ml of […] anti-IFN-γ mAb R26A2 and incubated overnight at […]. The plates were blocked with 1% BSA in PBS for 90 min at 37° C. and washed four times with PBS. LNC suspensions from DNFB-sensitized mice were prepared on day +5 after sensitization and CD8 + T cells were enriched by negative selection using Dynabeads (Dynal A. S., Oslo, Norway). The efficiency of CD4+ T cell depletion was >95% as assessed by flow cytometry. Syngeneic spleen cells from naive mice were treated with […] mitomycin C, hapten-labeled by incubation with DNBS ([…]), and used as stimulator cells. Responder LNC were resuspended in serum-free HL-1 medium (BioWhittaker, Walkersville, Md.) and cultured at 3×10^5 cells/well with 5×10^5 stimulator cells/well 24 h at 37° C. in 5% CO2. In all experiments responder CD8+ T cells cultured with unlabeled splenocytes and LNC from naive mice cultured with DNBS-labeled stimulator cells were used as negative controls. […] The resulting spots were counted on an ImmunoSpot Series 1 Analyzer (Cellular Technologies Ltd., Cleveland, Ohio) that was designed to detect spots with predetermined criteria for size, shape and colorimetric density. […]

RCC cell lines = assay: Growth inhibition assay, RCC, non-RCC and normal kidney (NKE) cells; type: cell-based, human; conditions: 6 RCC and 6 non-RCC cell lines, growth inhibition assay
Experimental: Growth inhibition assay. […] Cell survival was estimated after an additional 48 hours, using standard Methylene Blue staining followed by extraction and colorimetrical detection of the dye.

## CCN(CC)CCCC(C)Nc1c2ccc(Cl)cc2nc2ccc(OC)cc12 (stereo not drawn) [QC, quinacrine]
p53
  activation of the p53-dependent reporter (p53 transactivation) in RCC: effective inducer of p53 transactivation in RCC
ovalbumin-specific IgG
  increase of antigen-specific titers of IgG: 4 fold
[1]; quinacrine on days 0 and +1 (during 1% FITC sensitization)
  numbers of antigen-presenting dendritic cells in the skin draining lymph nodes: increased numbers of antigen-presenting dendritic cells
[1]; quinacrine on days −2 and −1 (prior to 1% FITC sensitization)
  numbers of antigen-presenting dendritic cells in the skin draining lymph nodes: decreased numbers of antigen-presenting dendritic cells
NF-κB; H1299-NF-kB-Luc cells
  basal and TNF-induced NF-κB reporter activities: strong dose-dependent suppression; also recorded: capable of inhibiting both basal and TNF-induced activities of NF-κB
NF-κB; H1299-NF-κBLuc cells
  timing of addition relative to TNF needed to inhibit NF-κB: can inhibit NF-κB when added before, simultaneously with or after TNF stimulation
[2]; quinacrine on days 0 and +1 (during sensitization)
  increase in priming of antigen-specific effector T cells: ~3 fold
[2]; quinacrine on days −2 and −1 (just prior to sensitization)
  priming of antigen-specific T cells (IFN-γ producing CD8 T cells): inhibits the priming of antigen-specific T cells; also recorded: decreased the priming of antigen-specific T cells
RCC cell lines
  IC50 in RCC cells compared with non-RCC cells: in the same range as for non-RCC cells
